In the NIST ThermoML archive (doi:10.1016/j.tca.2013.03.025):

Assay: refractive index (Na D-line) (dimensionless); xn = mol fraction of the nth substance listed
Conditions: 101 kPa, Liquid, Standard Abbe refractometry

CCCCOC(=O)C(C)O (stereo not given) [butyl 2-hydroxypropanoate] + CC(O)CO
refractive index
Conditions	x1 = 0.0999	x1 = 0.2	x1 = 0.3	x1 = 0.3999	x1 = 0.4998	x1 = 0.6	x1 = 0.6996	x1 = 0.7999	x1 = 0.9	x1 = 1
288.15 K	1.43214	1.43049	1.42918	1.42809	1.42709	1.42629	1.42548	1.42482	1.42412	1.42379
293.15 K	1.43038	1.42865	1.42726	1.42611	1.42506	1.42421	1.42336	1.42266	1.42191	1.42152
298.15 K	1.42861	1.42683	1.42535	1.42414	1.42303	1.42211	1.42124	1.42048	1.4197	1.41925
303.15 K	1.42682	1.42494	1.4234	1.42214	1.42099	1.42002	1.4191	1.41831	1.41749	1.41697
308.15 K	1.42503	1.42307	1.42146	1.42013	1.41894	1.4179	1.41696	1.41611	1.41528	1.4147
313.15 K	1.42323	1.42118	1.4195	1.41814	1.41687	1.41575	1.41482	1.41392	1.41307	1.41241
318.15 K	1.42143	1.41927	1.41751	1.41605	1.41479	1.41365	1.41265	1.41169	1.41083	1.41006
323.15 K	1.41962	1.4173	1.41556	1.41404	1.41275	1.41156	1.41049	1.4095	1.40859	1.40778

CCCCOC(=O)C(C)O (stereo not given) [butyl 2-hydroxypropanoate] + OCCCO
refractive index
Conditions	x1 = 0.0999	x1 = 0.2	x1 = 0.3001	x1 = 0.4	x1 = 0.4999	x1 = 0.5999	x1 = 0.6996	x1 = 0.8001	x1 = 0.9	x1 = 1
288.15 K	1.43875	1.43674	1.43484	1.43308	1.43138	1.42969	1.42809	1.42652	1.4251	1.42379
293.15 K	1.43724	1.4351	1.43311	1.43126	1.42947	1.4277	1.42602	1.42438	1.4229	1.42152
298.15 K	1.43568	1.43346	1.43136	1.42942	1.42754	1.42569	1.42396	1.42225	1.4207	1.41925
303.15 K	1.43417	1.4318	1.4296	1.42758	1.42563	1.42369	1.42187	1.4201	1.4185	1.41697
308.15 K	1.43265	1.43015	1.42783	1.42571	1.42367	1.42167	1.4198	1.41796	1.41629	1.4147
313.15 K	1.43112	1.42848	1.42606	1.42385	1.42173	1.41964	1.4177	1.41579	1.41408	1.41241
318.15 K	1.4296	1.42681	1.42426	1.42197	1.41977	1.41759	1.41556	1.41358	1.41183	1.41006
323.15 K	1.42813	1.42537	1.42267	1.42009	1.41772	1.41555	1.41347	1.41153	1.40962	1.40778

CCCCOC(=O)C(C)O (stereo not given) [butyl 2-hydroxypropanoate] + CCCO
refractive index
Conditions	x1 = 0.1	x1 = 0.2	x1 = 0.3001	x1 = 0.3998	x1 = 0.5	x1 = 0.5999	x1 = 0.7001	x1 = 0.7996	x1 = 0.8998	x1 = 1
288.15 K	1.39449	1.4003	1.4052	1.40922	1.41285	1.41543	1.41816	1.42021	1.42209	1.42379
293.15 K	1.39238	1.39818	1.40305	1.40704	1.41067	1.41321	1.41593	1.41798	1.41984	1.42152
298.15 K	1.39028	1.39605	1.40088	1.40485	1.40846	1.41101	1.41369	1.41572	1.41758	1.41925
303.15 K	1.38813	1.39389	1.3987	1.40265	1.40623	1.40877	1.41144	1.41346	1.4153	1.41697
308.15 K	1.38599	1.3917	1.39651	1.40042	1.40398	1.40652	1.40919	1.4112	1.41304	1.41469
313.15 K	1.38382	1.38951	1.39427	1.3982	1.4017	1.40425	1.40691	1.40893	1.41077	1.4124
318.15 K	1.3816	1.38726	1.39198	1.39591	1.39938	1.40195	1.40455	1.40658	1.40842	1.41005
323.15 K	1.37938	1.38505	1.38973	1.39364	1.3971	1.39967	1.40228	1.40433	1.40617	1.40778
